# In patent EP0447324B1, “2,4-Pyrimidinedione derivatives and medicines containing them” (SANOFI, priority 1990, dated 1991):
# “Also recorded” adds a separate entry of the source.
# System: peroxydation des lipides membranaires (suspensions de mitochondries)
# Test: Inhibition of membrane lipid peroxidation in beef heart mitochondria (malonaldehyde formation, dihydroxyfumaric acid/iron)
# Assay type: biochemical, boeuf
# From the text: L'inhibition de la peroxydation lipidique due aux radicaux libres oxygénés, peroxydation particulièrement importante en présence de fer, a été déterminée, in vitro, par la mesure de la quantité d'aldéhyde malonique formée dans des suspensions de mitochondries, mises en présence d'un générateur d'ions superoxydes comme l'acide dihydroxyfumarique.
# L'activité inhibitrice de la peroxydation des lipides membranaires des composés a été déterminée comme suit :
# a) préparation des mitochondries
# On prélève un coeur de boeuf immédiatement après l'abattage de l'animal et le refroidit à 4°C, température à laquelle toutes les opérations suivantes seront effectuées. Le coeur est lavé avec une solution aqueuse tampon à pH 7,4 (TRIS,HCl 10 mM, EDTA 2 mM, KCl 20 mM, saccharose 250 mM) puis les tissus conjonctifs et les graisses sont éliminés. Le muscle est alors haché et le hachis est mis en suspension dans une solution aqueuse tampon à pH 7,4 (TRIS,HCl 10 mM, saccharose 250 mM, EDTA 1 mM) à raison de 700 g de muscle pour 3 litres. Le pH de la suspension est réajusté à 7,4, régulièrement, avant d'isoler le hachis par filtration sur une gaze. […]
# Une gamme étalon de malonaldéhyde bis-(diéthylacétal) dilué dans une solution aqueuse de HCl 0,1 N permet de calculer à quelle concentration d'aldéhyde correspond chaque intensité de la fluorescence i. […]
compound,measurement,setting,value
O=c1[nH]c(=O)c2[nH]c(=O)[nH]c2[nH]1 [acide urique],inhibition de la peroxydation lipidique (result in words),,n'inhibe pas; also recorded: inactif
same,inhibition de la formation de malonaldéhyde,concentration inférieure à 100 »M,n'inhibe pas
